We go through 27 compounds from ChEMBL document CHEMBL2062480, “Semi-synthesis and anti-tumor evaluation of novel 25-hydroxyprotopanaxadiol derivatives” (Eur J Med Chem, 2012).

For experiment [1], the system named is MCF7. Kind of experiment: Antiproliferative activity against human MCF7 cells after 48 hrs by MTT assay. The experiment is classed as functional, cell-based. The settings on record: for IC50: MCF7, 48 h. Background: Tetrazolium assays rely on reduction of a dye to a coloured formazan, in cell work by metabolically active cells.
Another experiment deals with LoVo. Kind of experiment: Antiproliferative activity against human LoVo cells after 48 hrs by MTT assay. The experiment is classed as functional, cell-based.
Experiment [2] in a line: Antiproliferative activity against human IOSE-144 cells after 48 hrs by MTT assay. The settings on record: IOSE-144, 48 h. Type of experiment: cell-based.
In the next experiment the test system is A549. Kind of experiment: Antiproliferative activity against human A549 cells after 48 hrs by MTT assay. Type of experiment: functional, cell-based. The settings on record: A549, 48 h.
In experiment [3] the test system is MCF7. Put plainly: Antiproliferative activity against human MCF7 cells assessed as cell viability at 30 uM after 48 hrs by MTT assay. Type of experiment: functional. To be noted: MCF7, 48 h, read-out: Activity.

Molecules are shown by their SMILES.

As to `CCCCCCCCCCCCCCCCCC(=O)O[C@@H]1C[C@@H]2[C@@]3(C)CC[C@H](O)C(C)(C)[C@@H]3CC[C@@]2(C)[C@]2(C)CC[C@H]([C@](C)(O)CCCC(C)(C)O)[C@@H]12`, the IC50 (in the experiment with MCF7 [1]; in the experiment on LoVo; in experiment [2]; with A549) was greater than 100 µM throughout.
Consider `CCCCC(=O)O[C@H]1CC[C@]2(C)[C@H]3C[C@@H](OC(=O)CCCC)[C@@H]4[C@@H]([C@](C)(O)CCCC(C)(C)O)CC[C@@]4(C)[C@]3(C)CC[C@H]2C1(C)C`, for which the IC50 – broadly, the concentration at which inhibition is half-maximal – in the experiment with MCF7 [1] is greater than 50 µM; in the experiment on LoVo, greater than 50 µM; in experiment [2], greater than 100 µM; with A549 it was 49.9 µM.
Consider `CCCC(=O)O[C@@H]1C[C@@H]2[C@@]3(C)CC[C@H](O)C(C)(C)[C@@H]3CC[C@@]2(C)[C@]2(C)CC[C@H]([C@](C)(O)CCCC(C)(C)O)[C@@H]12`, for which the IC50 was 32.8 µM in the experiment on MCF7 [1], 38.3 µM in the experiment on LoVo, greater than 100 µM in experiment [2] and 25.5 µM with A549. In addition, the viability at 30 µM in the experiment on MCF7 [3] was determined as 28.5%.
Regarding `CCCCCCCCCCCCCCCCCC(=O)O[C@H]1CC[C@]2(C)[C@H]3C[C@@H](O)[C@@H]4[C@@H]([C@](C)(O)CCCC(C)(C)O)CC[C@@]4(C)[C@]3(C)CC[C@H]2C1(C)C`, the IC50 (in the experiment with MCF7 [1]; in the experiment on LoVo; in experiment [2]; in the experiment with A549) was greater than 100 µM throughout.
As to `CCC(=O)O[C@H]1CC[C@]2(C)[C@H]3C[C@@H](OC(=O)CC)[C@@H]4[C@@H]([C@](C)(O)CCCC(C)(C)O)CC[C@@]4(C)[C@]3(C)CC[C@H]2C1(C)C`, the IC50 in the experiment with MCF7 [1] is 20.6 µM; with LoVo it was 45.3 µM; in experiment [2], greater than 100 µM; in the experiment on A549, 14.9 µM.
Regarding `CC(C)(O)CCC[C@@](C)(O)[C@H]1CC[C@]2(C)[C@@H]1[C@H](O)C[C@@H]1[C@@]3(C)CC[C@H](O)C(C)(C)[C@@H]3CC[C@]12C`, the IC50 is 48.9 µM with MCF7 [1], 45.2 µM in the experiment on LoVo, greater than 100 µM in experiment [2] and 34.2 µM with A549. Moreover, in the experiment on MCF7 [3], the viability at 30 µM worked out at 66.3%.
Take `CC(C)(O)CCC[C@@](C)(O)[C@H]1CC[C@]2(C)[C@@H]1[C@H](O)C[C@@H]1[C@@]3(C)CC[C@H](OC=O)C(C)(C)[C@@H]3CC[C@]12C`: the Activity result in the experiment with MCF7 [1] is “Dose-dependent effect”. Also, the IC50 is 11.5 µM in the experiment on MCF7 [1], greater than 50 µM in the experiment on LoVo, greater than 100 µM in experiment [2] and 39.2 µM in the experiment on A549.
In the case of `CCCCCCCC(=O)O[C@H]1CC[C@]2(C)[C@H]3C[C@@H](O)[C@@H]4[C@@H]([C@](C)(O)CCCC(C)(C)O)CC[C@@]4(C)[C@]3(C)CC[C@H]2C1(C)C`, the IC50 with MCF7 [1] was greater than 100 µM; with LoVo, greater than 50 µM; in experiment [2] it was greater than 100 µM; in the experiment on A549 it was 46.7 µM.
Take `CCCCCCCCCC(=O)O[C@@H]1C[C@@H]2[C@@]3(C)CC[C@H](O)C(C)(C)[C@@H]3CC[C@@]2(C)[C@]2(C)CC[C@H]([C@](C)(O)CCCC(C)(C)O)[C@@H]12`: the IC50 was 26.2 µM in the experiment on MCF7 [1], greater than 50 µM in the experiment on LoVo, greater than 100 µM in experiment [2] and 29.6 µM with A549.
The matching figures for `CCCCCCC(=O)O[C@H]1CC[C@]2(C)[C@H]3C[C@@H](O)[C@@H]4[C@@H]([C@](C)(O)CCCC(C)(C)O)CC[C@@]4(C)[C@]3(C)CC[C@H]2C1(C)C`: 33.7 µM, greater than 50 µM, greater than 100 µM and 16.8 µM.
On to `CCCCCCCCCCCCCCCC(=O)O[C@@H]1C[C@@H]2[C@@]3(C)CC[C@H](O)C(C)(C)[C@@H]3CC[C@@]2(C)[C@]2(C)CC[C@H]([C@](C)(O)CCCC(C)(C)O)[C@@H]12`, for which the IC50 was greater than 50 µM in the experiment with MCF7 [1], greater than 100 µM in the experiment with LoVo, greater than 100 µM in experiment [2] and greater than 50 µM in the experiment with A549.
Regarding `CCCC(=O)O[C@H]1CC[C@]2(C)[C@H]3C[C@@H](O)[C@@H]4[C@@H]([C@](C)(O)CCCC(C)(C)O)CC[C@@]4(C)[C@]3(C)CC[C@H]2C1(C)C`, the IC50 with MCF7 [1] was 42.8 µM; with LoVo, greater than 50 µM; in experiment [2] it was greater than 100 µM; with A549 it was 35.5 µM.
In the same order, the values of `CCCCCCCCCCCC(=O)O[C@H]1CC[C@]2(C)[C@H]3C[C@@H](O)[C@@H]4[C@@H]([C@](C)(O)CCCC(C)(C)O)CC[C@@]4(C)[C@]3(C)CC[C@H]2C1(C)C` are greater than 100 µM, greater than 100 µM, greater than 100 µM and greater than 100 µM.
On to `CC(=O)O[C@H]1CC[C@]2(C)[C@H]3C[C@@H](OC(C)=O)[C@@H]4[C@@H]([C@](C)(O)CCCC(C)(C)O)CC[C@@]4(C)[C@]3(C)CC[C@H]2C1(C)C`, for which the IC50 was 25.3 µM in the experiment on MCF7 [1], 43.4 µM in the experiment with LoVo, greater than 100 µM in experiment [2] and 14.8 µM in the experiment on A549.
`CCCCC(=O)O[C@H]1CC[C@]2(C)[C@H]3C[C@@H](O)[C@@H]4[C@@H]([C@](C)(O)CCCC(C)(C)O)CC[C@@]4(C)[C@]3(C)CC[C@H]2C1(C)C`: the IC50 in the experiment on MCF7 [1] is greater than 50 µM; in the experiment on LoVo it was greater than 50 µM; in experiment [2] it was greater than 100 µM; with A549, greater than 50 µM.
Turning to `CCCCCCCC/C=C\CCCCCCCC(=O)O[C@@H]1C[C@@H]2[C@@]3(C)CC[C@H](O)C(C)(C)[C@@H]3CC[C@@]2(C)[C@]2(C)CC[C@H]([C@](C)(O)CCCC(C)(C)O)[C@@H]12`, the half-inhibitory concentration (IC50) (in the experiment on MCF7 [1]; in the experiment with LoVo; in experiment [2]; in the experiment with A549) was greater than 100 µM each time.
As to `CCCCCCCCCCCCCCCC(=O)O[C@H]1CC[C@]2(C)[C@H]3C[C@@H](O)[C@@H]4[C@@H]([C@](C)(O)CCCC(C)(C)O)CC[C@@]4(C)[C@]3(C)CC[C@H]2C1(C)C`, the IC50 (in the experiment with MCF7 [1]; with LoVo; in experiment [2]; in the experiment on A549) was greater than 100 µM throughout.
Consider `CCCCCCCCCCCCCC(=O)O[C@H]1CC[C@]2(C)[C@H]3C[C@@H](O)[C@@H]4[C@@H]([C@](C)(O)CCCC(C)(C)O)CC[C@@]4(C)[C@]3(C)CC[C@H]2C1(C)C`, for which the IC50 (with MCF7 [1]; with LoVo; in experiment [2]; with A549) was greater than 100 µM each time.
`CCCCCCCCCC(=O)O[C@H]1CC[C@]2(C)[C@H]3C[C@@H](O)[C@@H]4[C@@H]([C@](C)(O)CCCC(C)(C)O)CC[C@@]4(C)[C@]3(C)CC[C@H]2C1(C)C`: the 50% inhibitory concentration (IC50) in the experiment on MCF7 [1] is greater than 100 µM; in the experiment with LoVo it was greater than 50 µM; in experiment [2], greater than 100 µM; with A549 it was greater than 100 µM.
As for `CCCCCCC(=O)O[C@@H]1C[C@@H]2[C@@]3(C)CC[C@H](O)C(C)(C)[C@@H]3CC[C@@]2(C)[C@]2(C)CC[C@H]([C@](C)(O)CCCC(C)(C)O)[C@@H]12`, the IC50 in the experiment with MCF7 [1] was 16.3 µM; in the experiment on LoVo, 48.1 µM; in experiment [2] it was greater than 100 µM; in the experiment with A549, 16.5 µM.
Regarding `CC(=O)O[C@H]1CC[C@]2(C)[C@H]3C[C@@H](O)[C@@H]4[C@@H]([C@](C)(O)CCCC(C)(C)O)CC[C@@]4(C)[C@]3(C)CC[C@H]2C1(C)C`, the Activity result in the experiment with MCF7 [1] was “Dose-dependent effect”. In addition, the IC50 in the experiment on MCF7 [1] is 15.2 µM; with LoVo, greater than 50 µM; in experiment [2] it was greater than 100 µM; in the experiment on A549, 15.7 µM.
In the case of `CCCCCCCCC(=O)O[C@H]1CC[C@]2(C)[C@H]3C[C@@H](O)[C@@H]4[C@@H]([C@](C)(O)CCCC(C)(C)O)CC[C@@]4(C)[C@]3(C)CC[C@H]2C1(C)C`, the IC50 in the experiment on MCF7 [1] was greater than 50 µM; in the experiment with LoVo it was greater than 50 µM; in experiment [2], greater than 100 µM; with A549, greater than 50 µM.
Regarding `CCCCCCCC/C=C\CCCCCCCC(=O)O[C@H]1CC[C@]2(C)[C@H]3C[C@@H](O)[C@@H]4[C@@H]([C@](C)(O)CCCC(C)(C)O)CC[C@@]4(C)[C@]3(C)CC[C@H]2C1(C)C`, the IC50 (with MCF7 [1]; in the experiment on LoVo; in experiment [2]; with A549) was greater than 100 µM each time.
In the case of `CCCCCCCCCCCCCC(=O)O[C@@H]1C[C@@H]2[C@@]3(C)CC[C@H](O)C(C)(C)[C@@H]3CC[C@@]2(C)[C@]2(C)CC[C@H]([C@](C)(O)CCCC(C)(C)O)[C@@H]12`, the IC50 (in the experiment on MCF7 [1]; in the experiment on LoVo; in experiment [2]; with A549) was greater than 100 µM throughout.
As for `CCC(=O)O[C@H]1CC[C@]2(C)[C@H]3C[C@@H](O)[C@@H]4[C@@H]([C@](C)(O)CCCC(C)(C)O)CC[C@@]4(C)[C@]3(C)CC[C@H]2C1(C)C`, the Activity result in the experiment on MCF7 [1] was “Dose-dependent effect”. Also, the IC50 was 12.5 µM with MCF7 [1], greater than 50 µM in the experiment on LoVo, greater than 100 µM in experiment [2] and 43.6 µM with A549.
Consider `CCCCCCCCCCCC(=O)O[C@@H]1C[C@@H]2[C@@]3(C)CC[C@H](O)C(C)(C)[C@@H]3CC[C@@]2(C)[C@]2(C)CC[C@H]([C@](C)(O)CCCC(C)(C)O)[C@@H]12`, for which the IC50 was greater than 100 µM with MCF7 [1], greater than 50 µM in the experiment on LoVo, greater than 100 µM in experiment [2] and greater than 100 µM in the experiment with A549.
For `CCCCCC(=O)O[C@H]1CC[C@]2(C)[C@H]3C[C@@H](O)[C@@H]4[C@@H]([C@](C)(O)CCCC(C)(C)O)CC[C@@]4(C)[C@]3(C)CC[C@H]2C1(C)C`, the IC50 in the experiment on MCF7 [1] was greater than 50 µM; in the experiment with LoVo, greater than 50 µM; in experiment [2], greater than 100 µM; with A549, 26.2 µM.
